One compound from US20230233519A1, “COMBINATION THERAPIES” (MEI Pharma, Inc., priority 2020, published 2023) can be followed below.

For experiment [1], the system named is cytarabine resistant (araC-R) U937 acute monocytic leukemia (AMoL) cells. Briefly: Annexin V-FITC/PI apoptosis flow cytometry, araC-R U937. Format: cell-based. The conditions noted are these: araC-R U937, 24 h, clinically achievable concentrations. As to the method: (§1) Human adult AML cell lines (MOLM-13), human childhood AML cell lines (MV4-11 and THP-1), and cytarabine-resistant (araC-R) acute monocytic leukemia (AMoL) cell lines (U937) are treated with venetoclax and d-cis-3-(4-hydroxyphenyl)-4-(4-hydroxyphenyl)-8-methylchroman-7-ol (Compound A), alone or in combination, and are subject to flow cytometry analysis using Annexin V-fluorescein isothiocyanate (FITC)/propidium iodide (PI) Apoptosis Kit (Beckman Coulter, Brea, Calif.). Results are expressed as percent Annexin V-positive (Annexin V+) cells. For the AML/AMoL cell lines, experiments are performed three independent times in triplicate, and the data presented are from one representative experiment. The extent and direction of the antileukemic interaction between venetoclax and Compound A is determined by calculating the combination index (CI). CI<1 indicates synergistic effects, CI=1 indicates additive effects, and CI>1 indicates antagonistic effects. ***indicates p<0.001 compared to control.

The subject of experiment [2] is MOLM-13 AML cells. Briefly: Annexin V-FITC/PI apoptosis flow cytometry, MOLM-13. In kind it is cell-based, human. The following applies: MOLM-13, 24 h, clinically achievable concentrations. As to the method: (§2) AML cell lines used as described herein include MOLM-13, MV4-11, and THP-1. MOLM-13 cells are purchased from AddexBio (San Diego, Calif., USA). MV4-11 and THP-1 cell lines are purchased from the American Type Culture Collection (Manassas, Va., USA). The cell lines are cultured in RPMI 1640 with 10-20% fetal bovine serum (Thermo Fisher Scientific, Waltham, Mass., USA), 2 mM L-glutamine, 100 U/mL penicillin, and 100 μg/mL streptomycin. All cells are cultured in a 37° C. humidified atmosphere containing 5% CO2/95% air. The cell lines are authenticated at the Genomics Core at Karmanos Cancer Institute using the Power-Plex 16 System from Promega (Madison, Wis., USA). […]
as §1, with “For the AML/AMoL cell lines, experiments are performed three independent times in triplicate, and the data presented are from one representative experiment.” left out, “CI<1 indicates synergistic effects, CI=1 indicates additive effects, and CI>1 indicates antagonistic effects. ***indicates p<0.001 compared to control.” left out

The subject of experiment [3] is THP-1 childhood AML cells. Briefly: Viable cells (annexin V negative and PI negative) by flow cytometry, THP-1. Format: cell-based, human. The conditions noted are these: THP-1, 24 hr, clinically achievable concentrations. As to the method:
(§3) FIG. 2C depicts the percentage of viable THP-1 childhood AML cells following treatment of THP-1 childhood AML cell lines with venetoclax (VEN) and d-cis-3-(4-hydroxyphenyl)-4-(4-hydroxyphenyl)-8-methylchroman-7-ol (Compound A), alone or in combination, for 24 h. and then subjected to Annexin V-FITC/PI staining and flow cytometry analysis. Viable cells (annexin V negative and PI negative) were gated. Viable cell counts from no drug treatment controls were set at 100%, and the rest of the samples were normalized to the no drug treatment controls. The data were presented as mean percent of viable cells from triplicates with standard errors. […]
as §1, with “For the AML/AMoL cell lines, experiments are performed three independent times in triplicate, and the data presented are from one representative experiment.” left out, “CI<1 indicates synergistic effects, CI=1 indicates additive effects, and CI>1 indicates antagonistic effects. ***indicates p<0.001 compared to control.” left out

The subject of experiment [4] is MV4-11 childhood AML cells. Briefly: Viable cells (annexin V negative and PI negative) by flow cytometry, MV4-11. Format: cell-based, human. The following applies: MV4-11, 24 hr, clinically achievable concentrations. The procedure:
as §3, with “2B” for “2C”, “MV4-11” for “THP-1”
as §1, with “For the AML/AMoL cell lines, experiments are performed three independent times in triplicate, and the data presented are from one representative experiment.” left out, “CI<1 indicates synergistic effects, CI=1 indicates additive effects, and CI>1 indicates antagonistic effects. ***indicates p<0.001 compared to control.” left out

For experiment [5], the system named is THP-1 childhood AML cells. Briefly: Annexin V-FITC/PI apoptosis flow cytometry, THP-1. In kind it is cell-based, human. The conditions noted are these: THP-1, 24 h, clinically achievable concentrations. As to the method:
as §2
as §1, with “For the AML/AMoL cell lines, experiments are performed three independent times in triplicate, and the data presented are from one representative experiment.” left out, “CI<1 indicates synergistic effects, CI=1 indicates additive effects, and CI>1 indicates antagonistic effects. ***indicates p<0.001 compared to control.” left out

Experiment [6] concerns MV4-11 childhood AML cells. Briefly: Annexin V-FITC/PI apoptosis flow cytometry, MV4-11. Format: cell-based, human. The conditions noted are these: MV4-11, 24 h, clinically achievable concentrations. The procedure: as §2
as §1, with “For the AML/AMoL cell lines, experiments are performed three independent times in triplicate, and the data presented are from one representative experiment.” left out, “CI<1 indicates synergistic effects, CI=1 indicates additive effects, and CI>1 indicates antagonistic effects. ***indicates p<0.001 compared to control.” left out

Experiment [7] has as its system MOLM-13 AML cells. Briefly: Viable cells (annexin V negative and PI negative) by flow cytometry, MOLM-13. Format: cell-based, human. The conditions noted are these: MOLM-13, 24 hr, clinically achievable concentrations. As to the method:
FIG. 2A depicts the percentage of viable MOLM-13 AML cells following treatment of MOLM-13 AML cell lines with venetoclax (VEN) and d-cis-3-(4-hydroxyphenyl)-4-(4-hydroxyphenyl)-8-methylchroman-7-ol (Compound A), alone or in combination, for 24 h and then subjected to Annexin V-FITC/PI staining and flow cytometry analysis. Viable cells (annexin V negative and PI negative) were gated. Viable cell counts from no drug treatment controls were set at 100%, and the rest of the samples were normalized to the no drug treatment controls. The data were presented as mean percent of viable cells from triplicates with standard errors.
AML cell lines used as described herein include MOLM-13, MV4-11, and THP-1. […]
as §1, with “For the AML/AMoL cell lines, experiments are performed three independent times in triplicate, and the data presented are from one representative experiment.” left out, “CI<1 indicates synergistic effects, CI=1 indicates additive effects, and CI>1 indicates antagonistic effects. ***indicates p<0.001 compared to control.” left out

With `Cc1c(O)ccc2c1OC[C@@H](c1ccc(O)cc1)[C@H]2c1ccc(O)cc1` [Compound A, d-cis-3-(4-hydroxyphenyl)-4-(4-hydroxyphenyl)-8-methylchroman-7-ol], the “apoptosis (Annexin V+ cells)” value (in experiment [1]; in the experiment on MOLM-13 AML cells [2]; in experiment [5]; in experiment [6]) was “high levels of apoptosis” in each case. The “viability (percent of viable cells vs no drug control)” value (in experiment [3]; in experiment [4]; in the experiment with MOLM-13 AML cells [7]) was “dose-dependent decrease in viability” throughout.
